One data set deals with liver. As to the kind of experiment: In vivo NMR diagnosis (MRI) after oral administration, rat. The settings on record: p.o. 0.5 mmol of Gd/kg. The source says: This finding agrees very well with the pharmacokinetic data.
The subject of a further data set is Brown-Pearce tumor. In words: In vivo NMR diagnosis (MRI) after intravenous administration, rat with Brown-Pearce tumor in the liver. Particulars: i.v. 0.1 mmol of Gd/kg.
A further data set has as its target human serum albumin (Homo sapiens, UniProt P02768). In words: Association with human serum albumin in aqueous solution. Type of data set: binding.
For data set [1] the following is noted: cited from earlier work.

human serum albumin, sequence (P02768 25-609): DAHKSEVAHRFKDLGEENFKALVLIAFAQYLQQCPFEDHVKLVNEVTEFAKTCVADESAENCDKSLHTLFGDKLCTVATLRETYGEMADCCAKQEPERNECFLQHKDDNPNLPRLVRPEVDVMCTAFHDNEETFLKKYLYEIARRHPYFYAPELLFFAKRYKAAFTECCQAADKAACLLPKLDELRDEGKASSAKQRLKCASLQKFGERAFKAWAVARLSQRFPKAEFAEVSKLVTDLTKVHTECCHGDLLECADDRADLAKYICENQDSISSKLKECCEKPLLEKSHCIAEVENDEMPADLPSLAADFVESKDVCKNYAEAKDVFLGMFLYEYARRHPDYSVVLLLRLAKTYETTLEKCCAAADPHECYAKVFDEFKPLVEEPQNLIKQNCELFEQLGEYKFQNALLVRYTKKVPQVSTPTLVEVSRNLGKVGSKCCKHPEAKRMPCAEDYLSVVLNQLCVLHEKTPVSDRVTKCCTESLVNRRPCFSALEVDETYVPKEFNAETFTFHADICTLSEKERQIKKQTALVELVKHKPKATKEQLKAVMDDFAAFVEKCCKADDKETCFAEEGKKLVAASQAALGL
Protocol for Brown-Pearce tumor: A cell suspension of the Brown-Pearce tumor was injected in the liver in a test animal (rat, strain lew/mol, female, 155 g) two weeks before the test. In the method used, about 2 weeks were required until the tumor had reached the size of 0.5-1 cm^3 desired for the test.
For the test, the animal was anesthetized (Rompun+Ketavet) and then a catheter was placed in the caudal vein for the administration of the contrast medium.
The imaging took place in an MRI experimental device of the General Electric company (field strength 2 teslas). The first image was made without contrast media with a T1-weighted spin echo sequence (TR=400 msec, TE=20 msec, layer thickness 3 mm).

As to `O=C(O)CCCCCCCCCCNC(=O)CN(CCN(CCN(CC(=O)O)CC(=O)O)CC(=O)O)CC(=O)O.[Gd]` [Example 1b, Gadolinium complex of 3,6-bis(carboxymethyl)-9-(10-carboxydecylcarbamoylmethyl)-3,6,9-triazaundecanedioic acid], the “resorption after oral administration” value in the data set on liver was “resorbed in the small intestine after oral administration and is immediately taken up again for the most part by the liver”. In addition, in the data set on liver (45 minutes after administration (image 3)), the “signal in the liver in MRI image” value is on record as “slight increase in the signal in the liver”. Also, the “enhancement in the liver in MRI image” value with liver (180 minutes after administration (image 4)) is listed as “marked enhancement”. In addition, the “secretion in the stomach” value in the data set with Brown-Pearce tumor is given as “secreted in the stomach”. Besides, the “distribution of contrast medium between liver and tumor” value with Brown-Pearce tumor (60 minutes) was “concentrated in the liver to a great extent, but, not in the tumor”. In addition, in the data set on Brown-Pearce tumor (60 minutes (image no. 2)), the “enhancement of the stomach in MRI image” value was “very strong enhancement”. Also, the “appearance of liver tumor in MRI image” value with Brown-Pearce tumor (60 minutes after administration) is recorded as “considerably darker in comparison with the surrounding liver tissue”. For the same compound, the “signal intensity of liver parenchyma in MRI image” value with Brown-Pearce tumor (60 minutes after administration, T1-weighted spin echo, 2 teslas) is recorded as “very bright”.

On to `CCCCCCC(CCCCCCCCCCC(=O)O)NC(=O)CN(CCN(CCN(CC(=O)O)CC(=O)O)CC(=O)O)CC(=O)O.[Gd]` (centres unmarked) [Example 4b, Gadolinium complex of 3,6-bis(carboxymethyl)-9-(11-carboxy-1-n-hexyl-undecylcarbamoylmethyl)-3,6,9-triazaundecanedioic acid], for which, on human serum albumin, the “association with human serum albumin” value is “forms associates”.

On to `CNC[C@H](O)[C@@H](O)[C@H](O)[C@H](O)CO.CNC[C@H](O)[C@@H](O)[C@H](O)[C@H](O)CO.O=C([O-])CN(CCN(CC(=O)[O-])CC(=O)O)CCN(CC(=O)[O-])CC(=O)O.[Gd+3]` [Magnevist, gadolinium(III) complex of diethylenetriaminepentaacetic acid], for which, in data set [1], the “distribution after intravenous injection” value is “spreads extracellularly” and the “route of elimination after intravenous injection” value is “eliminated by glomerular secretion through the kidneys”.

Values taken from patent publication US6565830B1, “DTPA monoamides, pharmaceutical agents containing these compounds, their use and process for their production” (Schering Aktiengesellschaft, priority 1990, dated 2003).
